Test results published in PMC12064818, “A general assay platform to study protein pharmacology using ligand-dependent structural dynamics” (Nature Communications, 2025).

Biological target: firefly luciferase (FLuc) (Photinus pyralis, UniProt P08659)
Test: Thermal shift profiles (Thermofluor assay), FLuc;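 as to Thermofluor FLuc, No ATP: normalized first derivative of fluorescence (dF/dT) at the stated temperature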
Type: binding
Set-up: unit of the concentration uncertain
Conditions: compound 100 (unit uncertain); for Thermofluor FLuc, ATP: ATP (2 (unit uncertain))

Sequence of firefly luciferase (FLuc) (P08659 whole entry): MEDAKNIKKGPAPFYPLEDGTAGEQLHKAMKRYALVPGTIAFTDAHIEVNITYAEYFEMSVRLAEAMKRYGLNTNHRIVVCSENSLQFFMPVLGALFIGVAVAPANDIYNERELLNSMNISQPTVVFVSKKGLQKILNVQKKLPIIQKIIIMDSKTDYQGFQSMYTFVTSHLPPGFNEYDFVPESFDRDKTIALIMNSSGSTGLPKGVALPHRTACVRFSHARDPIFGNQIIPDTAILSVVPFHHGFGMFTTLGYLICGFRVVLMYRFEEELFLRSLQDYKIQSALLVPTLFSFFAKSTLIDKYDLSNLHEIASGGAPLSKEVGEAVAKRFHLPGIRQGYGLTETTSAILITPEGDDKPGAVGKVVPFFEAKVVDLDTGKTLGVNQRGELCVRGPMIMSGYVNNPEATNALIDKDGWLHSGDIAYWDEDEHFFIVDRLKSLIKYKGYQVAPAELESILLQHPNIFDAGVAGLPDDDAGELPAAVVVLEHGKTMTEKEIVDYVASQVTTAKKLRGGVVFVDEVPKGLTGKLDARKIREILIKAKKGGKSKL

## CC(CNC(=O)C1CCN(C(=O)c2ncn3c2COC(c2ccccc2)C3)CC1)c1ccccc1 (centres unmarked) [NCGC 00449795]
20.000 °C
  Thermofluor FLuc, No ATP: 0.224
  Thermofluor FLuc, ATP: 0.781
20.993 °C
  Thermofluor FLuc, No ATP: 0.114
  Thermofluor FLuc, ATP: 0.794
21.987 °C
  Thermofluor FLuc, No ATP: 0.126
  Thermofluor FLuc, ATP: 0.808
22.980 °C
  Thermofluor FLuc, No ATP: 0.133
  Thermofluor FLuc, ATP: 0.818
23.974 °C
  Thermofluor FLuc, No ATP: 0.087
  Thermofluor FLuc, ATP: 0.824
24.967 °C
  Thermofluor FLuc, No ATP: 0.106
  Thermofluor FLuc, ATP: 0.824
25.960 °C
  Thermofluor FLuc, No ATP: 0.064
  Thermofluor FLuc, ATP: 0.818
26.954 °C
  Thermofluor FLuc, No ATP: 0.085
  Thermofluor FLuc, ATP: 0.807
27.947 °C
  Thermofluor FLuc, No ATP: 0.040
  Thermofluor FLuc, ATP: 0.794
28.940 °C
  Thermofluor FLuc, No ATP: 0.026
  Thermofluor FLuc, ATP: 0.78
29.934 °C
  Thermofluor FLuc, No ATP: 0.058
  Thermofluor FLuc, ATP: 0.768
30.927 °C
  Thermofluor FLuc, No ATP: 0.042
  Thermofluor FLuc, ATP: 0.757
31.921 °C
  Thermofluor FLuc, No ATP: 0.056
  Thermofluor FLuc, ATP: 0.744
32.914 °C
  Thermofluor FLuc, No ATP: 0.053
  Thermofluor FLuc, ATP: 0.724
33.907 °C
  Thermofluor FLuc, No ATP: 0.025
  Thermofluor FLuc, ATP: 0.688
34.901 °C
  Thermofluor FLuc, No ATP: 0.000
  Thermofluor FLuc, ATP: 0.633
35.894 °C
  Thermofluor FLuc, No ATP: 0.005
  Thermofluor FLuc, ATP: 0.557
36.887 °C
  Thermofluor FLuc, No ATP: 0.023
  Thermofluor FLuc, ATP: 0.463
37.881 °C
  Thermofluor FLuc, No ATP: 0.061
  Thermofluor FLuc, ATP: 0.358
38.874 °C
  Thermofluor FLuc, No ATP: 0.092
  Thermofluor FLuc, ATP: 0.252
39.868 °C
  Thermofluor FLuc, No ATP: 0.154
  Thermofluor FLuc, ATP: 0.156
40.861 °C
  Thermofluor FLuc, No ATP: 0.218
  Thermofluor FLuc, ATP: 0.078
41.854 °C
  Thermofluor FLuc, No ATP: 0.347
  Thermofluor FLuc, ATP: 0.026
42.848 °C
  Thermofluor FLuc, No ATP: 0.433
  Thermofluor FLuc, ATP: 0
43.841 °C
  Thermofluor FLuc, No ATP: 0.514
  Thermofluor FLuc, ATP: 0
44.835 °C
  Thermofluor FLuc, No ATP: 0.555
  Thermofluor FLuc, ATP: 0.021
45.828 °C
  Thermofluor FLuc, No ATP: 0.658
  Thermofluor FLuc, ATP: 0.057
46.821 °C
  Thermofluor FLuc, No ATP: 0.723
  Thermofluor FLuc, ATP: 0.105
47.815 °C
  Thermofluor FLuc, No ATP: 0.793
  Thermofluor FLuc, ATP: 0.162
48.808 °C
  Thermofluor FLuc, No ATP: 0.830
  Thermofluor FLuc, ATP: 0.225
50.795 °C
  Thermofluor FLuc, No ATP: 0.929
  Thermofluor FLuc, ATP: 0.362
51.788 °C
  Thermofluor FLuc, No ATP: 0.936
  Thermofluor FLuc, ATP: 0.434
52.782 °C
  Thermofluor FLuc, ATP: 0.507
53.775 °C
  Thermofluor FLuc, No ATP: 1.000
  Thermofluor FLuc, ATP: 0.578
54.768 °C
  Thermofluor FLuc, No ATP: 0.997
  Thermofluor FLuc, ATP: 0.643
55.762 °C
  Thermofluor FLuc, No ATP: 0.999
  Thermofluor FLuc, ATP: 0.699
56.755 °C
  Thermofluor FLuc, No ATP: 0.989
  Thermofluor FLuc, ATP: 0.743
57.748 °C
  Thermofluor FLuc, No ATP: 0.966
  Thermofluor FLuc, ATP: 0.774
58.742 °C
  Thermofluor FLuc, No ATP: 0.936
  Thermofluor FLuc, ATP: 0.793
59.735 °C
  Thermofluor FLuc, No ATP: 0.945
  Thermofluor FLuc, ATP: 0.802
60.729 °C
  Thermofluor FLuc, No ATP: 0.960
  Thermofluor FLuc, ATP: 0.805
61.722 °C
  Thermofluor FLuc, No ATP: 0.919
  Thermofluor FLuc, ATP: 0.804
62.715 °C
  Thermofluor FLuc, No ATP: 0.915
  Thermofluor FLuc, ATP: 0.801
63.709 °C
  Thermofluor FLuc, No ATP: 0.911
  Thermofluor FLuc, ATP: 0.797
65.695 °C
  Thermofluor FLuc, No ATP: 0.892
  Thermofluor FLuc, ATP: 0.793
66.689 °C
  Thermofluor FLuc, No ATP: 0.889
  Thermofluor FLuc, ATP: 0.799
68.676 °C
  Thermofluor FLuc, No ATP: 0.909
  Thermofluor FLuc, ATP: 0.827
69.669 °C
  Thermofluor FLuc, No ATP: 0.830
  Thermofluor FLuc, ATP: 0.847
70.662 °C
  Thermofluor FLuc, No ATP: 0.839
  Thermofluor FLuc, ATP: 0.865
71.656 °C
  Thermofluor FLuc, No ATP: 0.811
  Thermofluor FLuc, ATP: 0.881
72.649 °C
  Thermofluor FLuc, No ATP: 0.810
  Thermofluor FLuc, ATP: 0.893
73.643 °C
  Thermofluor FLuc, No ATP: 0.758
  Thermofluor FLuc, ATP: 0.901
74.636 °C
  Thermofluor FLuc, No ATP: 0.788
  Thermofluor FLuc, ATP: 0.906
75.629 °C
  Thermofluor FLuc, No ATP: 0.714
  Thermofluor FLuc, ATP: 0.91
